Data on 25 molecules can be found in US6653330B2, “Amide-type triazole compounds” (Sankyo Company, Limited, priority 2000, dated 2003).

Consider `CC(=O)Oc1ccc(NC(=O)c2ccc([C@H]3OC[C@H](S[C@H](C)[C@](O)(Cn4cncn4)c4ccc(F)cc4F)CO3)cc2)cc1` [Example 24, 4′-Acetoxy-4-[trans-5-[[(1R,2R)-2-(2,4-difluorophenyl)-2-hydroxy-1-methyl-3-(1H-1,2,4-triazol-1-yl)propyl]thio]-1,3-dioxan-2-yl]benzanilide], for which the melting point stood at 127 °C. Under `C[C@@H](S[C@H]1CO[C@H](c2ccc(C(=O)Nc3ccc(C(F)(F)F)cc3)cc2)OC1)[C@](O)(Cn1cncn1)c1ccc(F)cc1F` [Example 11, 4-[trans-5-[[(1R,2R)-2-(2,4-Difluorophenyl)-2-hydroxy-1-methyl-3-(1H-1,2,4-triazol-1-yl)propyl]thio]-1,3-dioxan-2-yl]-4′-(trifluoromethyl)benzanilide] stands 210 °C; under `C[C@@H](C[C@H]1CO[C@H](c2ccc(C(=O)Nc3ccc(C#N)cc3)cc2)OC1)[C@](O)(Cn1cncn1)c1ccc(F)cc1F` [Example 4, 4′-Cyano-4-[trans-5-[(2S,3R)-3-(2,4-difluorophenyl)-3-hydroxy-2-methyl-4-(1H-1,2,4-triazol-1-yl)butyl]-1,3-dioxan-2-yl]benzanilide], 159 °C; under `C[C@@H](S[C@H]1CO[C@H](c2ccc(C(=O)Nc3ccc(C#N)cc3)cc2F)OC1)[C@](O)(Cn1cncn1)c1ccc(F)cc1F` [Example 5, 4′-Cyano-4-[trans-5-[[(1R,2R)-2-(2,4-difluorophenyl)-2-hydroxy-1-methyl-3-(1H-1,2,4-triazol-1-yl)propyl]thio]-1,3-dioxan-2-yl]-3-fluorobenzanilide], 110 °C. The molecule `CC(=O)c1ccc(NC(=O)c2ccc([C@H]3OC[C@H](S[C@H](C)[C@](O)(Cn4cncn4)c4ccc(F)cc4F)CO3)cc2)cc1` [Example 22, 4′-Acetyl-4-[trans-5-[[(1R,2R)-2-(2,4-difluorophenyl)-2-hydroxy-1-methyl-3-(1H-1,2,4-triazol-1-yl)propyl]thio]-1,3-dioxan-2-yl]benzanilide] yielded a melting point of 171 °C. With `C[C@@H](S[C@H]1CO[C@H](c2ccc(C(=O)Nc3ccc(Cl)cc3)cc2)OC1)[C@](O)(Cn1cncn1)c1ccc(F)cc1F` [Example 8, 4′-Chloro-4-[trans-5-[[(1R,2R)-2-(2,4-difluorophenyl)-2-hydroxy-1-methyl-3-(1H-1,2,4-triazol-1-yl)propyl]thio]-1,3-dioxan-2-yl]benzanilide], the melting point came out at 210 °C. For `C[C@@H](S[C@H]1CO[C@H](c2ccc(C(=O)Nc3ccc([N+](=O)[O-])cc3)cc2)OC1)[C@](O)(Cn1cncn1)c1ccc(F)cc1F` [Example 18], the melting point turned out to be 189 °C. In turn, `C[C@@H](S[C@H]1CO[C@H](c2ccc(C(=O)Nc3c(F)c(F)c(C#N)c(F)c3F)cc2)OC1)[C@](O)(Cn1cncn1)c1ccc(F)cc1F` [Example 20, 4′-Cyano-4-[trans-5-[[(1R,2R)-2-(2,4-difluorophenyl)-2-hydroxy-1-methyl-3-(1H-1,2,4-triazol-1-yl)propyl]thio]-1,3-dioxan-2-yl]-2′,3′,5′,6′-tetrafluorobenzanilide] yielded a melting point of 182 °C.

Consider `C[C@@H](S[C@H]1CO[C@H](c2ccc(C(=O)Nc3nccs3)cc2)OC1)[C@](O)(Cn1cncn1)c1ccc(F)cc1F` [Example 27, 4-[trans-5-[[(1R,2R)-2-(2,4-Difluorophenyl)-2-hydroxy-1-methyl-3-(1H-1,2,4-triazol-1-yl)propyl]thio]-1,3-dioxan-2-yl]-N-(2-thiazolyl)benzamide], for which the melting point came to 108 °C. Under `C[C@@H](S[C@H]1CO[C@H](c2ccc(C(=O)Nc3nc4ccccc4s3)cc2)OC1)[C@](O)(Cn1cncn1)c1ccc(F)cc1F` [Example 28, N-(Benzothiazol-2-yl)-4-[trans-5-[[(1R,2R)-2-(2,4-difluorophenyl)-2-hydroxy-1-methyl-3-(1H-1,2,4-triazol-1-yl)propyl]thio]-1,3-dioxan-2-yl]benzamide] stands 107 °C; under `C[C@@H](S[C@H]1CO[C@H](c2ccc(C(=O)Nc3ccc(C#N)c(C#N)c3)cc2)OC1)[C@](O)(Cn1cncn1)c1ccc(F)cc1F` [Example 21, 3′,4′-Dicyano-4-[trans-5-[[(1R,2R)-2-(2,4-difluorophenyl)-2-hydroxy-1-methyl-3-(1H-1,2,4-triazol-1-yl)propyl]thio]-1,3-dioxan-2-yl]benzanilide], 182 °C; under `C[C@@H](S[C@H]1CO[C@H](c2ccc(C(=O)Nc3ccc(SC(F)(F)F)cc3)cc2)OC1)[C@](O)(Cn1cncn1)c1ccc(F)cc1F` [Example 13, 4-[trans-5-[[(1R,2R)-2-(2,4-Difluorophenyl)-2-hydroxy-1-methyl-3-(1H-1,2,4-triazol-1-yl)propyl]thio]-1,3-dioxan-2-yl]-4′-(trifluoromethylthio)benzanilide], 95 °C. Take `C[C@@H](S[C@H]1CO[C@H](c2ccc(C(=O)Nc3ccc(C(N)=O)cc3)cc2)OC1)[C@](O)(Cn1cncn1)c1ccc(F)cc1F` [Example 30, 4′-Carbamoyl-4-[trans-5-[[(1R,2R)-2-(2,4-difluorophenyl)-2-hydroxy-1-methyl-3-(1H-1,2,4-triazol-1-yl)propyl]thio]-1,3-dioxan-2-yl]benzanilide]: the melting point was determined as 230 °C. For the molecule `C[C@@H](S[C@H]1CO[C@H](c2ccc(C(=O)Nc3ccc(OC(F)(F)F)cc3)cc2)OC1)[C@](O)(Cn1cncn1)c1ccc(F)cc1F` [Example 12, 4-[trans-5-[[(1R,2R)-2-(2,4-Difluorophenyl)-2-hydroxy-1-methyl-3-(1H-1,2,4-triazol-1-yl)propyl]thio]-1,3-dioxan-2-yl]-4′-(trifluoromethoxy)benzanilide], the melting point came to 180 °C. Under `C[C@@H](S[C@H]1CO[C@H](c2ccc(C(=O)Nc3ccc(C#N)cc3)cc2)OC1)[C@](O)(Cn1cncn1)c1ccc(F)cc1F` [Example 2, 4′-Cyano-4-[trans-5-[[(1R,2R)-2-(2,4-difluorophenyl)-2-hydroxy-1-methyl-3-(1H-1,2,4-triazol-1-yl)propyl]thio]-1,3-dioxan-2-yl]benzanilide] stands 176 °C; under `C[C@@H](S[C@H]1CO[C@H](c2ccc(C(=O)Nc3ccc(C#N)cc3F)cc2)OC1)[C@](O)(Cn1cncn1)c1ccc(F)cc1F` [Example 25, 4′-Cyano-2′-fluoro-4-[trans-5-[[(1R,2R)-2-(2,4-difluorophenyl)-2-hydroxy-1-methyl-3-(1H-1,2,4-triazol-1-yl)propyl]thio]-1,3-dioxan-2-yl]benzanilide], 136 °C. As to `C[C@@H](S[C@H]1CO[C@H](c2ccc(C(=O)Nc3ccncc3)cc2)OC1)[C@](O)(Cn1cncn1)c1ccc(F)cc1F` [Example 17, 4-[trans-5-[[(1R,2R)-2-(2,4-Difluorophenyl)-2-hydroxy-1-methyl-3-(1H-1,2,4-triazol-1-yl)propyl]thio]-1,3-dioxan-2-yl]-N-(4-pyridyl)benzamide], the melting point was 133 °C. As for `C[C@@H](S[C@H]1CO[C@H](c2ccc(C(=O)Nc3ccc(F)cc3)cc2)OC1)[C@](O)(Cn1cncn1)c1ccc(F)cc1F` [Example 10, 4-[trans-5-[[(1R,2R)-2-(2,4-Difluorophenyl)-2-hydroxy-1-methyl-3-(1H-1,2,4-triazol-1-yl)propyl]thio]-1,3-dioxan-2-yl]-4′-fluorobenzanilide], the melting point stood at 104 °C. `C[C@@H](S[C@H]1CO[C@H](c2ccc(C(=O)NCc3cccc4ccccc34)cc2)OC1)[C@](O)(Cn1cncn1)c1ccc(F)cc1F` [Example 29, 4-[trans-5-[[(1R,2R)-2-(2,4-Difluorophenyl)-2-hydroxy-1-methyl-3-(1H-1,2,4-triazol-1-yl)propyl]thio]-1,3-dioxan-2-yl]-N-[(1-naphthyl)methyl]benzamide] gave a melting point of 97 °C. `C[C@@H](S[C@H]1CO[C@H](c2ccc(C(=O)Nc3ccc(CC#N)cc3)cc2)OC1)[C@](O)(Cn1cncn1)c1ccc(F)cc1F` [Example 7, 4′-(Cyanomethyl)-4-[trans-5-[[(1R,2R)-2-(2,4-difluorophenyl)-2-hydroxy-1-methyl-3-(1H-1,2,4-triazol-1-yl)propyl]thio]-1,3-dioxan-2-yl]benzanilide] registered a melting point of 188 °C. The result for `Cc1ccc(NC(=O)c2ccc([C@H]3OC[C@H](S[C@H](C)[C@](O)(Cn4cncn4)c4ccc(F)cc4F)CO3)cc2)cc1` [Example 14, 4-[trans-5-[[(1R,2R)-2-(2,4-Difluorophenyl)-2-hydroxy-1-methyl-3-(1H-1,2,4-triazol-1-yl)propyl]thio]-1,3-dioxan-2-yl]-4′-methylbenzanilide] reads 101 °C; that for `C[C@@H](S[C@H]1CO[C@H](c2cccc(C(=O)Nc3ccc(C#N)cc3)c2)OC1)[C@](O)(Cn1cncn1)c1ccc(F)cc1F` [Example 6, 4′-Cyano-3-[trans-5-[[(1R,2R)-2-(2,4-difluorophenyl)-2-hydroxy-1-methyl-3-(1H-1,2,4-triazol-1-yl)propyl]thio]-1,3-dioxan-2-yl]benzanilide], 105 °C; that for `C[C@@H](S[C@H]1CO[C@H](c2ccc(C(=O)Nc3ccc(C#N)c(Cl)c3)cc2)OC1)[C@](O)(Cn1cncn1)c1ccc(F)cc1F`, 115 °C. `C[C@@H](S[C@H]1CO[C@H](c2ccc(C(=O)Nc3ccc(Br)cc3)cc2)OC1)[C@](O)(Cn1cncn1)c1ccc(F)cc1F` [Example 15, 4′-Bromo-4-[trans-5-[[(1R,2R)-2-(2,4-difluorophenyl)-2-hydroxy-1-methyl-3-(1H-1,2,4-triazol-1-yl)propyl]thio]-1,3-dioxan-2-yl]benzanilide] came in with a melting point of 221 °C. Molecule `C[C@@H](S[C@H]1CO[C@H](c2ccc(C(=O)Nc3ccc(C#N)c4ccccc34)cc2)OC1)[C@](O)(Cn1cncn1)c1ccc(F)cc1F` [Example 19, N-(4-Cyano-1-naphthyl)-4-[trans-5-[[(1R,2R)-2-(2,4-difluorophenyl)-2-hydroxy-1-methyl-3-(1H-1,2,4-triazol-1-yl)propyl]thio]-1,3-dioxan-2-yl]benzamide] came in with a melting point of 109 °C.

As a reminder, the melting point is the temperature, or range, at which the solid turns liquid.
